Assay results as given in patent publication US6677501B2, “P2X7 receptor-deficient mice and uses thereof” (Pfizer, Inc., priority 2000, dated 2004).
Where “and” joins values, the source holds several entries; their conditions need not be identical. Equal values may be shown once.

Assays:
IL-6 = assay: ATP-induced IL-6 release in LPS-primed mice (peritoneal lavage ELISA); assay type: in vivo, mouse; settings: for IL-6 (ng/ml), ATP Challenge, P2×7R-/-: LPS-primed P2×7R-/- mice; for IL-6 (ng/ml), ATP Challenge, P2×7R-/- / IL-6 (ng/ml), ATP Challenge, WT: ip ATP, peritoneal lavage; for IL-6 (ng/ml), ATP Challenge, WT: LPS-primed wild-type mice
Procedure: (§1) ATP-Induced IL-1β Posttranslational Processing In Vivo Groups of mice were injected intraperitoneally (ip) with 1 μg of LPS. Two hours after this LPS injection, mice were injected ip with either 30 mM ATP (adjusted to pH 7) or PBS. Mice were sacrificed 30 minutes or 120 minutes after the ATP or PBS injection and peritoneal cavities were lavaged, each with 3 ml of RPMI (5% FCS). Samples of peritoneal lavages were spun down, supernatants were collected and tested for the presence of IL-1β and IL-6 using ELISAs (Amersham Life Sciences, Arlington Heights, Va. and Endogen, Woburn, Mass., respectively).
As noted earlier, IL-1 signaling often leads to the production of other cytokines such as IL-6 (Allen et al. (2000) J. Exp. Med. 191:859-869). […] Two hours later an injection of ATP (or PBS) was administered to promote IL-1 posttranslational processing and the mice were incubated for an additional 4 hours. Peritoneal lavages were collected at several times during the course of the experiment and analyzed for IL-6 by ELISA. […] Mice that received an initial priming injection of LPS followed by PBS yielded levels of IL-6 at 1 and 2 hours (4 to 5 ng/ml) that were elevated above those recovered from mice injected with the combination of phosphate buffered saline and ATP (FIG. 8). By 4 hours, however, IL-6 levels recovered from the LPS-PBS treated animals returned to baseline (FIG. 9).

[1] = system: mouse peritoneal macrophages; assay: YoPro Yellow uptake by peritoneal macrophages; assay type: cell-based; settings: 5 mM ATP
Procedure: Peritoneal macrophages were washed with Isotonic Medium (15 mM Hepes, pH 7.2, 135 mM NaCl, 5 mM KCl, […], […]) by centrifugation and the resulting cell pellet was suspended in Isotonic Medium to achieve a final cell concentration of 1×10^6 cells/ml. Fifty μl of this cell suspension then was placed into wells of a Microfluor “B” U-bottom plate (Dynatech, Chantilly, Va.), and 50 μl of 2 μM YoPro Yellow (Molecular Probes, Eugene, Ore.); the fluorescent dye was dissolved in Isotonic Medium. Wells were then adjusted to 5 mM ATP or 0.0075% saponin by addition of concentrated stock solutions of these agents. Fluorescence was monitored as a function of time at 37° C., excitation, 450 nm/emission, 530 nm.

[2] = system: LPS-activated peritoneal macrophages; assay: Stimulus-induced IL-1β posttranslational processing in vitro; assay type: cell-based, mouse; settings: 35S-methionine-labeled, 30 min, 5 mM ATP or 20 μM nigericin
Procedure: (§2) Macrophages from wild type and P2×7^−/− animals (1×10^6 cells seeded per well of 6-well cluster plates) were stimulated with 1 μg/ml E. coli LPS (Serotype 055 B5 obtained from Sigma; St. Louis, Mo.) for 75-90 minutes and then rinsed with 2 ml of methionine-free RPMI medium containing 100 units/mi penicillin, 100 μg/ml streptomycin, 1% dialyzed FBS, 1 μg/ml LPS, and 25 mM Hepes, pH 7.3 (Pulse Medium). One ml of Pulse Medium containing 83 μCi/Ml of ^35S-methionine (Amersham Corp, Chicago, Ill.) then was added to each well, and the cells were labeled at 37° C. for 1 hour. These labeled cells subsequently were rinsed twice with RPMI 1640 medium containing 100 units/mil penicillin, 100 μg/ml streptomycin, 1% FBS, 2 mM glutamine, 1 μg/ml LPS and 25 mM Hepes, pH 7.3 (Chase Medium). One ml of Chase Medium (containing no effector (control) or containing 05 mM ATP, or 20 mM nigericin) was then added to each well, and the cells were chased at 37° C. for 30 minutes. Media were harvested and clarified by centrifugation (6000×g for 5 minutes) to remove cells and/or cell debris. Cell monolayers were suspended in 1 ml of a lysis buffer composed of 1% Triton X-100, 150 mM NaCl, 25 mM Hepes, pH 7, 0.1 mM PMSF, 1 mg/ml ovalbumin, 1 mM iodoacetic acid, 1 μg/ml pepstatin, and 1 μg/ml leupeptin. Clarified media samples were adjusted to the same final Triton X-100 and protease inhibitor concentrations by addition of aliquots from concentrated stocks of these reagents. After a 30 minute incubation on ice, all samples were clarified by centrifugation at 45,000 rpm for 30 minutes in a TLA-45 rotor (Beckman, Palo Alto, Calif.), the resulting supernatants were recovered, and IL-1β was immunoprecipitated from these samples using a goat anti-murine IL-1β serum obtained from Dr. Ivan Otterness (Pfizer Central Research, Groton, Conn.). Immnunoprecipitates were fractionated by SDS gel electrophoresis, the quantity of radioactivity associated with individual IL-1β polypeptide species was determined by scanning dried gels with a Phosphoimager.

other P2× receptors = settings: cited from earlier work
IL-1β = assay: ATP-induced IL-1β posttranslational processing in vivo (peritoneal lavage ELISA); parameters: species or system mouse
Procedure: as §1

[3] = system: LPS-activated peritoneal macrophages; assay: LDH release from LPS-activated macrophage cultures; assay type: cell-based, mouse; settings: 30 min
Procedure: FIG. 6B is a graphic representation showing the percentage of lactate dehydrogenase (LDH) released from the total culture associated LDH in the samples described in FIG. 6A;
as §2, with “After a 30 minute incubation on ice, all samples were clarified by centrifugation at 45,000 rpm for 30 minutes in a TLA-45 rotor (Beckman, Palo Alto, Calif.), the resulting supernatants were recovered, and IL-1β was immunoprecipitated from these samples using a goat anti-murine IL-1β serum obtained from Dr. Ivan Otterness (Pfizer Central Research, Groton, Conn.).” left out

P2×7R = settings: cited from earlier work

Row | SMILES | IL-6 (ng/ml), ATP Challenge, P2×7R-/- (IL-6; 30 min post challenge) | IL-6 (ng/ml), ATP Challenge, P2×7R-/- (IL-6; 120 min post challenge) | IL-6 (ng/ml), ATP Challenge, WT (IL-6; 30 min post challenge) | IL-6 (ng/ml), ATP Challenge, WT (IL-6; 120 min post challenge) | peak lavage fluid IL-6 (IL-6; wild-type mice, LPS at time 0, ATP at 2 hours, 4 hour time point) | lavage fluid IL-6 (IL-6; wild-type mice, priming injection of PBS followed 2 hours later by ATP) | YoPro Yellow fluorescence intensity ([1]; P2×7R-/- macrophages) | YoPro Yellow fluorescence intensity ([1]; wild-type macrophages) | extracellular 17 kDa IL-1β as percentage of total radiolabeled IL-1β recovered ([2]; P2×7R-/- macrophages) | extracellular 17 kDa IL-1β as percentage of total radiolabeled IL-1β recovered ([2]; wild-type macrophages) | ATP concentrations at which receptors activate (other P2× receptors) | IL-1β in peritoneal lavage after ATP challenge (IL-1β; LPS-primed mice heterozygous (+/-) for the P2×7R disruption, 30 min) | IL-1 (ng/ml), ATP Challenge, WT (IL-1β; LPS-primed wild-type mice, ip ATP, 120 min post challenge, peritoneal lavage) | release of lactate dehydrogenase (LDH) ([3]; wild-type macrophages) | levels of ATP required to achieve activation (P2×7R) | release of lactate dehydrogenase (LDH) ([3]; P2×7R-/- macrophages)
1 | Nc1ncnc2c1ncn2[C@@H]1O[C@H](COP(=O)(O)OP(=O)(O)OP(=O)(O)O)[C@@H](O)[C@H]1O [ATP] | 9 ± 1 ng/mL | 6 ng/mL | 8.2 ± 1.7 ng/mL | 17 ng/mL and 16.8 ± 2.3 ng/mL | > 25 ng/mL | did not contain significant levels of IL-6 at any time | did not result in time-dependent increase in fluorescence intensity | time dependent increase in fluorescence intensity | did not release any radiolabeled IL-1β | 64% | ≤ 100 µM | A similar pattern | 0.34 ng/mL and 0.33 ± 0.08 ng/mL | enhanced release | > 1 mM | –
2 | CO[C@@H]1C[C@@H](C[C@H]2CC[C@H](C)[C@H]([C@@H](C)C(=O)O)O2)O[C@]2(O[C@](C)([C@H]3CC[C@@](C)([C@@H]4O[C@@H]([C@H]5O[C@@](O)(CO)[C@H](C)C[C@@H]5C)C[C@@H]4C)O3)C[C@H]2C)[C@@H]1C [nigericin] | – | – | – | – | – | – | – | – | 74% | 66% | – | – | – | comparable quantities of LDH | – | comparable quantities of LDH
